Source: ChEMBL document CHEMBL5705887, “Distinct concentration-dependent effects of the polo-like kinase 1-specific inhibitor GSK461364A, including differential effect on apoptosis” (Cancer Res, 2009)
The source made the active and inactive calls. The calls are words filed in the database; no cut-off is given here.

Tests used:
NCI-H460 [1] = assay: Antiproliferative activity against human NCI-H460 cells assessed as of viable cell signal at minimum maximum cell growth incubated for 72 hrs by celltiter-glo assay relative to control; assay type: functional
NCI-H727 = assay: Antiproliferative activity against human NCI-H727 cells assessed as growth inhibition incubated for 72 hrs by celltiter-glo assay; assay type: functional
T47D = assay: Antiproliferative activity against human T47D cells assessed as of viable cell signal at minimum maximum cell growth incubated for 72 hrs by celltiter-glo assay relative to control; assay type: functional
PANC-08-13 = assay: Antiproliferative activity against human PANC-08-13 cells assessed as of viable cell signal at minimum maximum cell growth incubated for 72 hrs by celltiter-glo assay relative to control; assay type: functional
MCF7 = assay: Antiproliferative activity against human MCF7 cells assessed as growth inhibition incubated for 72 hrs by celltiter-glo assay; assay type: functional
HL-60 = assay: Antiproliferative activity against human HL-60 cells assessed as viable cell signal at maximum growth inhibition incubated for 72 hrs by celltiter-glo assay relative to control; assay type: functional
Jurkat = assay: Antiproliferative activity against human Jurkat cells assessed as growth inhibition incubated for 72 hrs by celltiter-glo assay; assay type: functional
HN5 = assay: Antiproliferative activity against human HN5 cells assessed as growth inhibition incubated for 72 hrs by celltiter-glo assay; assay type: functional
[2] = molecular target: Fibroblast growth factor receptor 3 (Homo sapiens) (UniProt P22607); assay: Inhibition of N-terminal his6-tagged recombinant human FGFR3 (447 to 761 residues) expressed in baculovirus Sf21 insect cells at 10 uM relative to control
COLO 205 = assay: Antitumor activity against human COLO 205 cells xenografted in ip dosed Nude mouse assessed as increase in pIk1 level measured at 24 to 48 hrs by […]; assay type: functional, organism-based; conditions: dose 50-100 mg/kg, time 24-48 hrs
HeLa = assay: Antiproliferative activity against human HeLa cells assessed as viable cell signal at maximum growth inhibition incubated for 72 hrs by celltiter-glo assay relative to control; assay type: functional
NCI-H358 = assay: Antiproliferative activity against human NCI-H358 cells assessed as growth inhibition incubated for 72 hrs by celltiter-glo assay; assay type: functional
NCI-H322M = assay: Antiproliferative activity against human NCI-H322M cells assessed as viable cell signal at maximum growth inhibition incubated for 72 hrs by celltiter-glo assay relative to control; assay type: functional
NCI-H82 = assay: Antiproliferative activity against human NCI-H82 cells assessed as viable cell signal at maximum growth inhibition incubated for 72 hrs by celltiter-glo assay relative to control; assay type: functional
OVCAR-8 = assay: Antiproliferative activity against human OVCAR-8 cells assessed as viable cell signal at maximum growth inhibition incubated for 72 hrs by celltiter-glo assay relative to control; assay type: functional
LNCaP = assay: Antiproliferative activity against human LNCaP cells assessed as growth inhibition incubated for 72 hrs by celltiter-glo assay; assay type: functional
Panc 02.03 = assay: Antiproliferative activity against human Panc 02.03 cells assessed as growth inhibition incubated for 72 hrs by celltiter-glo assay; assay type: functional
A-431 = assay: Antiproliferative activity against human A-431 cells assessed as of viable cell signal at minimum maximum cell growth incubated for 72 hrs by celltiter-glo assay relative to control; assay type: functional
U2OS [3] = assay: Induction of mitotic arrest in human U2OS cells expressing fused cyclin B1-GFP at > 250 nmol/L incubated for 48 hrs by image based analysis; assay type: functional, cell-based
SK-MEL-5 = assay: Antiproliferative activity against human SK-MEL-5 cells assessed as of viable cell signal at minimum maximum cell growth incubated for 72 hrs by celltiter-glo assay relative to control; assay type: functional
K562 = assay: Antiproliferative activity against human K562 cells assessed as of viable cell signal at minimum maximum cell growth incubated for 72 hrs by celltiter-glo assay relative to control; assay type: functional
NCI-H1299 = assay: Antiproliferative activity against human NCI-H1299 cells assessed as of viable cell signal at minimum maximum cell growth incubated for 72 hrs by celltiter-glo assay relative to control; assay type: functional
MDA-MB-468 = assay: Antiproliferative activity against human MDA-MB-468 cells assessed as of viable cell signal at minimum maximum cell growth incubated for 72 hrs by celltiter-glo assay relative to control; assay type: functional
OVCAR-3 = assay: Antiproliferative activity against human OVCAR-3 cells assessed as of viable cell signal at minimum maximum cell growth incubated for 72 hrs by celltiter-glo assay relative to control; assay type: functional
MDA-MB-231 = assay: Antiproliferative activity against human MDA-MB-231 cells assessed as growth inhibition incubated for 72 hrs by celltiter-glo assay; assay type: functional
NCI-H460 [4] = assay: Antiproliferative activity against human NCI-H460 cells assessed as viable cell signal at maximum growth inhibition incubated for 72 hrs by celltiter-glo assay relative to control; assay type: functional
[5] = molecular target: Serine/threonine-protein kinase pim-1 (Homo sapiens) (UniProt P11309); assay: Inhibition of full length N-terminal GST-tagged recombinant human PIM1 expressed in Escherichia coli at 10 uM relative to control
Calu-3 = assay: Antiproliferative activity against human Calu-3 cells assessed as growth inhibition incubated for 72 hrs by celltiter-glo assay; assay type: functional
SK-MEL3 = assay: Antiproliferative activity against human SK-MEL3 cells assessed as growth inhibition incubated for 72 hrs by celltiter-glo assay; assay type: functional
A549 = assay: Induction of mitotic arrest in human A549 cells assessed as effect on pHH3 level at 10 to 250 nmol/L incubated for 19 hrs by ELISA analysis; assay type: functional, cell-based; conditions: dose 10-250 nmol/L
U-87 MG = assay: Antiproliferative activity against human U-87 MG cells assessed as growth inhibition incubated for 72 hrs by celltiter-glo assay; assay type: functional, U-87MG ATCC
U2OS [6] = assay: Induction of mitotic arrest in human U2OS cells assessed as effect on pHH3 level at 10 to 250 nmol/L incubated for 19 hrs by ELISA analysis; assay type: functional, cell-based; conditions: dose 10-250 nmol/L
ZR-75-1 = assay: Antiproliferative activity against human ZR-75-1 cells assessed as of viable cell signal at minimum maximum cell growth incubated for 72 hrs by celltiter-glo assay relative to control; assay type: functional
[7] = Antiproliferative activity against human PL45 cells assessed as of viable cell signal at minimum maximum cell growth incubated for 72 hrs by celltiter-glo assay relative to control; assay type: functional
A-427 = assay: Antiproliferative activity against human A-427 cells assessed as growth inhibition incubated for 72 hrs by celltiter-glo assay; assay type: functional
[8] = molecular target: Serine/threonine-protein kinase 10 (Homo sapiens) (UniProt O94804); assay: Inhibition of N-terminal his6-tagged recombinant human LOK (1 to 348 residues) expressed in baculovirus Sf21 cells at 10 uM relative to control
HT-1080 = assay: Antiproliferative activity against human HT-1080 cells assessed as viable cell signal at maximum growth inhibition incubated for 72 hrs by celltiter-glo assay relative to control; assay type: functional
MIA PaCa-2 = assay: Antiproliferative activity against human MIA PaCa-2 cells assessed as viable cell signal at maximum growth inhibition incubated for 72 hrs by celltiter-glo assay relative to control; assay type: functional
HCT-15 = assay: Antiproliferative activity against human HCT-15 cells assessed as of viable cell signal at minimum maximum cell growth incubated for 72 hrs by celltiter-glo assay relative to control; assay type: functional

Serine/threonine-protein kinase 10 (Homo sapiens), sequence (O94804 whole entry, looked up, the tested form may be a part): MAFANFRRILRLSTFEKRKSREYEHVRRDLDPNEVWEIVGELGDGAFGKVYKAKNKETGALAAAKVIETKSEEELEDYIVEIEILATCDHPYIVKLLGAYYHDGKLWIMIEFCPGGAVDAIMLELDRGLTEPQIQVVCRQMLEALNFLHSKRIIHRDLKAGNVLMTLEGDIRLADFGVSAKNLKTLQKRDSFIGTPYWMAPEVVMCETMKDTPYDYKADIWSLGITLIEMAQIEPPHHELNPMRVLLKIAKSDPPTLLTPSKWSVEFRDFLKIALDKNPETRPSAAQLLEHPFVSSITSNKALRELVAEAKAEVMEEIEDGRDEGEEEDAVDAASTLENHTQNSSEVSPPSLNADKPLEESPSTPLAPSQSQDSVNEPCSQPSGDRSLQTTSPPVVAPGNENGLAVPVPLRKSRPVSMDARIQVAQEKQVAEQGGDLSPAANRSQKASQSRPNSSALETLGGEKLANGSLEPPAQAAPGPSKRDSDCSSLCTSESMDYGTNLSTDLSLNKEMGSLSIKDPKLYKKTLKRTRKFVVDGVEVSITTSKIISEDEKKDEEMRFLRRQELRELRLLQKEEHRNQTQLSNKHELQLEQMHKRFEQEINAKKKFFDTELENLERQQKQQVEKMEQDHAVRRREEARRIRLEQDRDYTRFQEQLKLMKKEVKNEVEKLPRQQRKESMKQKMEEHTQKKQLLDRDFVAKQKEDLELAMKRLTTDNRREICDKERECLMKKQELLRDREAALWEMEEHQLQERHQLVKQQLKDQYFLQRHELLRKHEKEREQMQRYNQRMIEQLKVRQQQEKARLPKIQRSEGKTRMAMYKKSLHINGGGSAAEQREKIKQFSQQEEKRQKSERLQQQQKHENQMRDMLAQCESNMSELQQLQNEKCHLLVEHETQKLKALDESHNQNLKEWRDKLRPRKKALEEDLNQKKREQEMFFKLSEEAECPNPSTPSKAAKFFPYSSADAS
Serine/threonine-protein kinase pim-1 (Homo sapiens), sequence (P11309 whole entry, looked up): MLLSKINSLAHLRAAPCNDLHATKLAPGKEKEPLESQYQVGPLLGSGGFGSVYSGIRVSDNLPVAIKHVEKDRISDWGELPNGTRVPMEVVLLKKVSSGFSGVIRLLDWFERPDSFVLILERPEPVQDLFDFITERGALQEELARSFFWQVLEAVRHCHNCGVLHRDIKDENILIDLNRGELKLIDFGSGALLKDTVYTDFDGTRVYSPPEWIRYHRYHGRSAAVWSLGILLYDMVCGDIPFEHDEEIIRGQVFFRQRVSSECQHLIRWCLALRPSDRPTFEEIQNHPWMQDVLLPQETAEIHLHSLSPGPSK
Fibroblast growth factor receptor 3 (Homo sapiens), sequence (P22607 23-806 limits assumed): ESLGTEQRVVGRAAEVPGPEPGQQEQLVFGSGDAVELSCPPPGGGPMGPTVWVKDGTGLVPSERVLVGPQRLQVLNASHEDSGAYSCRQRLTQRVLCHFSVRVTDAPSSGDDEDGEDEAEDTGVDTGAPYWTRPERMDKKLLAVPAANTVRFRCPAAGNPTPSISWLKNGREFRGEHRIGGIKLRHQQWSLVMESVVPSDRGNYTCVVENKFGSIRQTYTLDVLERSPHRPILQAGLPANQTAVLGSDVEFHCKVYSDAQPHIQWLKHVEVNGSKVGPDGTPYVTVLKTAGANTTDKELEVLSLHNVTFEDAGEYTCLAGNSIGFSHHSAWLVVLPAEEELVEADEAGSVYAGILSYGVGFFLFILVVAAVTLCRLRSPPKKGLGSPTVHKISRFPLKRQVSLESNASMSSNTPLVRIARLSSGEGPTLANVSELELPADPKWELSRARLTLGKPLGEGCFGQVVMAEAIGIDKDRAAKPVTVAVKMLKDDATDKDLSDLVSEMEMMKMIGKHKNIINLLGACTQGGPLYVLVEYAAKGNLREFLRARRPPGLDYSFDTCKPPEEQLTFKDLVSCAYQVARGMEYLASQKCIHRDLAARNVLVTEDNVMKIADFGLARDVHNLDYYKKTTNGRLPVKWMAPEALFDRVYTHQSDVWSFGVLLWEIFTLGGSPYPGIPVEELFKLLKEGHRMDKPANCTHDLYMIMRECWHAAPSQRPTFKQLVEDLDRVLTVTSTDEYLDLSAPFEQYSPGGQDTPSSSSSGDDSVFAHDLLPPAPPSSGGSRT

Molecule `C[C@@H](Oc1cc(-n2cnc3ccc(CN4CCN(C)CC4)cc32)sc1C(N)=O)c1ccccc1C(F)(F)F` [GSK-461364] has an Emin (NCI-H460 [1]) of 94.6%, a GI50 (NCI-H727) of 45.2 nM and an Emin (T47D) of 205%. For the same molecule, the Emin (PANC-08-13) was 131.3%, the GI50 (MCF7) was 6.4 nM and the Emax (HL-60) was 191%. The GI50 (Jurkat) was 18.6 nM, the GI50 (HN5) was 15.4 nM and the inhibition [2] was 60%. The Activity (COLO 205) was “Dose-Dependent Effect”, the Emax (HeLa) was 406% and the GI50 (NCI-H358) was 13.4 nM. For the same molecule, the Emax (NCI-H322M) was 611%, the Emax (NCI-H82) was 398% and the Emax (OVCAR-8) was 567%. The GI50 (LNCaP) was 15.3 nM, the GI50 (Panc 02.03) was 20.9 nM and the Emin (A-431) was 151.5%. For the same molecule, the Activity (U2OS [3]) was “Active”, the Emin (SK-MEL-5) was 84% and the Emin (K562) was 91.2%. The Emin (NCI-H1299) was 44.4%, the Emin (MDA-MB-468) was 182.2% and the Emin (OVCAR-3) was 164%. For the same molecule, the GI50 (MDA-MB-231) was 9.15 nM, the Emax (NCI-H460 [4]) was 952% and the inhibition [5] was 90%. The GI50 (Calu-3) was 35.6 nM, the GI50 (SK-MEL3) was 17.6 nM and the Activity (A549) was “Active”. For the same molecule, the GI50 (U-87 MG) was 7.45 nM, the Activity (U2OS [6]) was “Active” and the Emin (ZR-75-1) was 133.6%. The Emin [7] was 101.2%, the GI50 (A-427) was 22.8 nM and the inhibition [8] was 86%. The Emax (HT-1080) was 223%, the Emax (MIA PaCa-2) was 580% and the Emin (HCT-15) was 75%.
